Measured values from publication PMC11997985, “Synthesis and In Vitro Profiling of Psilocin Derivatives: Improved Stability and Synthetic Properties” (Journal of Medicinal Chemistry, 2025).

Columns and labels:
[1] = Plasma stability in human plasma; type: in vitro ADME; conditions: for half-life at 1 μM / remaining at 12 s, 1 μM / remaining at 5 min, 1 μM / remaining at 10 min, 1 μM / remaining at 0.5 h, 1 μM / remaining at 1 h, 1 μM / remaining at 2 h, 1 μM / remaining at 4 h, 1 μM: human, pooled human plasma; for half-life at 1 μM: 37 °C, read-out: T ½ in human plasma; for remaining at 12 s, 1 μM: 0.2 min (first sample, reference); for remaining at 0.5 h, 1 μM: 30 min; for remaining at 1 h, 1 μM: 60 min; for remaining at 2 h, 1 μM: 120 min; for remaining at 4 h, 1 μM: 240 min; for degradation in human plasma: sampling at 5 min and later
From the text: It should be noted that esterase-labile compounds are notoriously difficult to study in microsomal stability studies.[36]
(§1) Materials for experiments described in the supporting information (solubility) […]
(§2) Dimethylsulfoxide (DMSO) CHROMASOLV™ Plus, >99.7%
(§3) Acetonitrile (MeCN) LiChrosolv, hypergrade for LC-MS, Merck Chemicals
(§4) Formic acid (HCOOH) For LC-MS, Carlo-Erba
(§5) Water > 18MΩcm quality (Milli-Q, Millipore
(§6) Di-sodium-hydrogenphoshate dihydrate Merck
(§7) Sodium-dihydrogenphosphate monohydrate Merck
(§8) Autosampler Agilent 1260 Multisampler, G7167A
(§9) Gradient LC-pump Agilent 1260 Flexible Pump, G7104C
(§10) Analytical Flow 0.5 mL/min
(§11) Analytical column Luna® Omega 1.6 µm Polar C18 100Å, 50 x 2.1 mm
(§12) Injection volume 3.0 µL (15 µL for “high” injection of buffer sample) […]
(§13) Mobile phase A H2O/MeCN/Formic acid 95/5/0.1
(§14) Mobile phase B H2O/MeCN/Formic acid 5/95/0.1
(§15) Materials and analytical parameters for FT-ICR-MALDI-HRMS
(§16) The high-resolution mass spectrometry (HR-MS) experiments were performed using a MALDI-Fourier-transform ion cyclotron resonance (FTICR) (7T solariX XR-2ω, Bruker Daltonics) mass spectrometer equipped with a Smartbeam II 2 kHz laser. Briefly, a stock solution (1mg/ml) of the compound 5 was prepared and mixed 1:1 with a matrix solution containing DHB (40 mg/ml) in 50% ACN (0.02% TFA). 1 µl of the mixed solution was spotted onto MPTP MALDI target plate (Bruker Daltonics) and dried at room temperature. The instrument was tuned for optimal detection of small molecules (m/z 86–500) in positive polarity using the quadrature phase detection (QPD) (2ω) mode. The method was calibrated with red phosphorus over the mass range and DHB matrix ion [2M–2H2O+H]+ m/z 273.039364 was used as lock mass.
(§17) Incubation samples. 10 mM stock solutions of test compounds in DMSO were used to prepare 100 μM solutions by dilution in EtOH/water 25/75 (v/v). 6 μL of the 100 μM solution was spiked into 594 μL pre-warmed plasma at 37 °C giving a final concentration of 1 μM. The incubation tube was then mixed on a vortex. A sample (60 μL) was taken and added to an Eppendorf tube containing 180 μL acetonitrile. The tube was thoroughly mixed with a vortex. The precipitated sample was then treated with centrifugation (10.000 g, 10 minutes, 18 °C), 150 μL of the supernatant was mixed with 450 μL water directly into a LC-vial (glass). This step was repeated for every time point. The first time point was approximately taken 15-20 seconds after spiking.
(§18) Other timepoints were 5,10, 30, 60, 120, 240 minutes. Pre-precipitated samples. 594 μL of pre-warmed plasma was precipitated with 1800 μL ACN. 6 μL of the 100 μM solution was spiked into the precipitated plasma. 1 mL was removed and added to an Eppendorf tube. After a centrifugation step (10.000 g, 10 minutes, 18 °C), 150 μL of the supernatant was mixed with 450 μL water directly into a LC-vial (glass).
(§19) Metabolic stability in human microsomes
(§20) The assay was run at 37°C with a microsomal protein concentration of 0.5 mg/mL and a compound concentration of 1 μM in a 0.1 M potassium phosphate buffer at pH 7.4. The compounds were added to the microsome suspension whereafter the enzymatic reaction was initiated by the addition of the co-factor NADPH, giving a final NADPH concentration of 1 mM (Table 9). Samples […]
(§21) Plasma stability. The compounds were incubated separately at a concentration of 1 μM in +37°C pre-warmed pooled human plasma from commercial resources. The incubations were performed over a four-hour period with the first sample taken after addition of the compounds to plasma followed by a thorough mixing, with further sampling at 5, 10, and 30 minutes as well as 1,

[2] = Compounds in pre-precipitated (inactivated) plasma; type: in vitro ADME, human; conditions: for % found in incubation plasma at time 0.2 min: peak area in incubation plasma versus pre-precipitated plasma; for degradation in inactivated plasma: plasma pretreated with acetonitrile
Protocol: as §1, §2, §3, §4, §5, §6, §7, §8, §9, §10, §11, §12, §13, §14, §15
as §16, with “mass. The compound was identified with sub ppm mass accuracy and specific isotopic pattern of boron in its molecular structure.” for “mass.”
as §17, §18, §19, §20
Table S6 Time-dependent decline in concentration of five compounds for in vitro plasma stability in human plasma and […]
as §21, with “1, 2, and 4 hours. The samples were analyzed by LC-MS/MS using relative peak areas for the calculations of the time-dependent […]” for “1,”
Table S7 Comparison of peak area in incubation plasma after addition and mixing with pre-precipitated plasma. […]

[3] = mice dosed with psilocybin or 4-AcO–DMT; cited from earlier work
[4] = Solid solubility assay, phosphate buffer pH 7.4; type: physicochemical; conditions: phosphate buffer pH 7.4, dry substance

Row | Structure (SMILES) | half-life at 1 μM [1] | remaining at 12 s, 1 μM [1] | remaining at 5 min, 1 μM [1] | remaining at 10 min, 1 μM [1] | remaining at 0.5 h, 1 μM [1] | remaining at 1 h, 1 μM [1] | remaining at 2 h, 1 μM [1] | remaining at 4 h, 1 μM [1] | degradation in human plasma [1] | % found in incubation plasma at time 0.2 min [2] | degradation in inactivated plasma [2] | psilocin exposure compared with psilocybin [3] | solubility at 24 h [4]
1 | CN(C)CCc1c[nH]c2cccc(OCc3ccccc3)c12 [Compound 3, 4-Benzyloxy-N,N-dimethyltryptamine] | > 480 min | 100% | 103% | 103% | 105% | 111% | 110% | 107% | no degradation was observed | 115% | fairly stable |  | 
2 | CC(=O)Oc1cccc2[nH]cc(CCN(C)C)c12.O=C(O)/C=C/C(=O)O [Compound 4a, 4-acetoxy-N,N-dimethyltryptamine] | < 5 min | 100% | 0.2% | 0.2% | 0.2% | 0.2% | 0.1% | 0.2% | almost no compound remained | 9.8% | heavily degraded | nonsignificant difference in psilocin exposure | 
3 | CN(C)CCc1c[nH]c2cccc(OP(=O)(O)O)c12 [Compound 8, 4-phosphoryloxy-N,N-dimethyltryptamine, reference compound] | > 480 min | 100% | 135% |  | 130% | 122% | 127% | 122% | no degradation was observed | 67% | fairly stable |  | > 1000 µM
4 | CCOC(=O)Oc1cccc2[nH]cc(CCN(C)C)c12.O=C(O)/C=C/C(=O)O [Compound 4i] | < 5 min | 100% | 0% | 0% | 0% | 0% | 0% | 0% | almost no compound remained | 17% | heavily degraded |  | 
5 | CN(C)CCc1c[nH]c2cccc(OC(=O)C3CC3)c12.O=C(O)/C=C/C(=O)O [Compound 4g] | < 5 min | 100% | 1.5% | 0.1% | 0% | 0% | 0% | 0% | almost no compound remained | 90% | fairly stable |  | 
